Measured values published in paper PMC12391474 (Scientific Reports, 2025).
pKd: −log10 of the molar value. Structures can show the parent of a compound that is named as a salt.

Biological target: T1, Fibrinogen (FB) (Bos taurus, UniProt P02672+P02676+P12799)
T1 sequence (P02672 20-615): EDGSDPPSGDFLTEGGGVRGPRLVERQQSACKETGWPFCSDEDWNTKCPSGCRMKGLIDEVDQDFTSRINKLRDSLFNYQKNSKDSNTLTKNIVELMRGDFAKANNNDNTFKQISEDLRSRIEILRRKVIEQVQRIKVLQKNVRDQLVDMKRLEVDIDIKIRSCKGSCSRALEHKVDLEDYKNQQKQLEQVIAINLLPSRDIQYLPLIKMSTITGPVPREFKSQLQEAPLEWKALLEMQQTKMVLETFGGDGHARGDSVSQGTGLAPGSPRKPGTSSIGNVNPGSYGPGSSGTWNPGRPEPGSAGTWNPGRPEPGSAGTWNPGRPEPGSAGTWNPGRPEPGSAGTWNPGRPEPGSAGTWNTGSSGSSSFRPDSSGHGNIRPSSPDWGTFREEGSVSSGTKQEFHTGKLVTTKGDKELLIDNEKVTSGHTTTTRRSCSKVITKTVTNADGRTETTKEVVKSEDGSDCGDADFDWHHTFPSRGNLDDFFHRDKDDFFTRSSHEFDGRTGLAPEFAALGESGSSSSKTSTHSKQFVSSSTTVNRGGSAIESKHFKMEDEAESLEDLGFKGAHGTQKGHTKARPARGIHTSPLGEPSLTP
T1 sequence (P02676 1-468): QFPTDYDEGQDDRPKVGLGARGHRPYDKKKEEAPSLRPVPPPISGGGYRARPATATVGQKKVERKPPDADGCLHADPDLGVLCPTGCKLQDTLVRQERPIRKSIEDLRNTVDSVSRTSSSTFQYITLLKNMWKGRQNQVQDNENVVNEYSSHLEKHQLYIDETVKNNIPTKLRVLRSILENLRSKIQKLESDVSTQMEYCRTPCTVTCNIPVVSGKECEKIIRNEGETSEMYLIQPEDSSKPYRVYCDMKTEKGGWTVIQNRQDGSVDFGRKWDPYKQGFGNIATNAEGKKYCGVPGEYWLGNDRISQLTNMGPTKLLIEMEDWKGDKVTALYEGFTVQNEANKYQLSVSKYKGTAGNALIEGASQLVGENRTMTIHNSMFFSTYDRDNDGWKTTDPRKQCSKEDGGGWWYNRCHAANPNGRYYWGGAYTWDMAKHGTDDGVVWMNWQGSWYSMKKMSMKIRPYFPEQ
T1 sequence (P12799 25-444): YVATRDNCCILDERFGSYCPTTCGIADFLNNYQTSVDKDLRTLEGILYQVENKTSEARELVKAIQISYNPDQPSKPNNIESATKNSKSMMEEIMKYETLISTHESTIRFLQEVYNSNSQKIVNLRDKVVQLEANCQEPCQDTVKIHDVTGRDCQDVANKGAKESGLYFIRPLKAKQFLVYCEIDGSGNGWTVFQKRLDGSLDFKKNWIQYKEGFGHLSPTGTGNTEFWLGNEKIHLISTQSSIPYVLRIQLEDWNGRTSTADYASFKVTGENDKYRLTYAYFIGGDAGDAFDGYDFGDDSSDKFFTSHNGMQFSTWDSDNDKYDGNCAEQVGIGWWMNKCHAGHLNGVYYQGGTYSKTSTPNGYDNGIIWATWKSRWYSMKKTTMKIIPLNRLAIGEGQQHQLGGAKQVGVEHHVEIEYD
Assay: intrinsic fluorescence quenching titration
Format: binding

pKd: 2.78
SMILES: CC(C)(C)NC[C@H](O)COc1nsnc1N1CCOCC1 [TM, Timolol maleate]
